The record followed here is patent publication US9944618B2, “Inhibiting neurotransmitter reuptake” (Mayo Foundation for Medical Education and Research, priority 2013, dated 2018).

Structures are written as SMILES. Read-outs that look alike come from different tables or passages of the source.

For orientation: Ki means the equilibrium dissociation constant of an inhibitor or competing ligand from its target. Usually pKa stands for the negative logarithm of the acid dissociation constant.

Data set [1] has as its target human dopamine transporter (Homo sapiens (Human), UniProt Q01959). The experiment in a line: Human DAT (dopamine transporter) uptake assay. It is filed as cell-based. As to conditions: read-out: hDAT Ki. How it is done: This protocol was designed to measure inhibition of uptake by the human dopamine transporter. […] The Assay Buffer (AB) was 1×HBSS and 0.02 M HEPES.
(§1) The HEK293F cells were transfected with the human dopamine transporter and frozen in 1 mL aliquots at about 1E+07 cells/mL. On the day of the experiment, the cells were removed from −80° C. or liquid nitrogen and thawed in a room temperature water bath. The cells were dilute to about 1-2E+06 with Freestyle medium. A 1 mL sample (1:2 dilution) was prepared, and the cells were counted. The cells were spun at 1100 rpm for 5 minutes, and the medium was aspirated off. The cells were resuspend in medium at 1.5E+06 cells/mL for about 60,000 cells per well. 40 μL of cells were dispensed per well in the Biocoat plates. The plates were spun at 1100 rpm for 1 minute to improve homogeneity of the cell layer and were incubated at 37° C. for a minimum of 3 hours.
(§2) 12 μL of test compound (10 mM) in DMSO was added to the wells, and nomifensine was used as a control. […] The neurotransmitter transporter dye was prepared in AB prior to use.
Due to the proprietary nature of the dye formulation, all dye concentrations were expressed as a percentage of the vendor-recommended dye reconstitution. Thus, the above calculations were valid when both [dye] and K1 were expressed in the same units (%). Compounds were tested in triplicate (n=3).

The target in data set [2] is human serotonin transporter (Homo sapiens (Human), UniProt P31645). The experiment in a line: Human SERT (serotonin transporter) uptake assay. It is filed as cell-based. Particulars: read-out: hSERT Ki. Here is the method:
This protocol was designed to measure inhibition of uptake by the human serotonin transporter. […] The Assay Buffer (AB) was […] and 0.02 M HEPES.
as §1, with “serotonin” for “dopamine”
12 μL of test compound (10 mM) in DMSO was added to the wells, and nomifensine was used as a control. Fluoxetine (final assay concentration of 10 μM) was used for background signal. The neurotransmitter transporter dye was prepared in AB prior to use.
(§3) Due to the proprietary nature of the dye formulation, all dye concentrations were expressed as a percentage of the vendor-recommended dye reconstitution. Thus, the above calculations were valid when both [dye] and Km were expressed in the same units (%). Compounds were tested in triplicate (n=3).

Data set [3] in a line: pKa of basic centres (Table 1). The format is physicochemical.
The target in data set [4] is human norepinephrine transporter (Homo sapiens (Human), UniProt P23975). The experiment in a line: Human NET (norepinephrine transporter) uptake assay. The format is cell-based. As to conditions: for Ki: read-out: hNET Ki; for potency at hNET relative to the other enantiomer or epimer: comparison in words, used to assign configuration. How it is done:
This protocol was designed to measure inhibition of uptake by the human norepinephrine transporter. […] The Assay Buffer (AB) was 1×HBSS and 0.02 M HEPES.
as §1, with “norepinephrine” for “dopamine”
as §2, §3

[5] abbreviates: first base, e.g., an aliphatic primary, secondary, or tertiary amine, read-out: pKa (Base 1).
Where [6] appears, read: second base in the same molecule (if present), read-out: pKa (Base 2).

Sequence of human serotonin transporter (P31645 whole entry): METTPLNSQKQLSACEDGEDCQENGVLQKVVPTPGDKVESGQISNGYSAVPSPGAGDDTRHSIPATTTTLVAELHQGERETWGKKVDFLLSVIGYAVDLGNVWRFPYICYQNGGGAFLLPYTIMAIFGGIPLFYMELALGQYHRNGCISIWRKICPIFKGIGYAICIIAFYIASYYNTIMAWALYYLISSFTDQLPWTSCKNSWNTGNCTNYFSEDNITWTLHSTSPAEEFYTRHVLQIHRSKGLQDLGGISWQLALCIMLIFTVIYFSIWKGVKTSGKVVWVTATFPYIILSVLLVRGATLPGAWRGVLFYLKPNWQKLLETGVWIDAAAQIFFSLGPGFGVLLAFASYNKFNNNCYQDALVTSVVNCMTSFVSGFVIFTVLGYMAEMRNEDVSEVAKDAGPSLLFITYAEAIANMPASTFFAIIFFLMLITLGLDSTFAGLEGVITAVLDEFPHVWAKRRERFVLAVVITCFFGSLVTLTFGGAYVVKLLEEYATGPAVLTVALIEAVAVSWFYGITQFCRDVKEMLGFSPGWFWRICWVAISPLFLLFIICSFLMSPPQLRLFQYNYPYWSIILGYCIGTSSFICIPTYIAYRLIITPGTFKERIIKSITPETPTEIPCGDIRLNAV
Sequence of human norepinephrine transporter (P23975 whole entry): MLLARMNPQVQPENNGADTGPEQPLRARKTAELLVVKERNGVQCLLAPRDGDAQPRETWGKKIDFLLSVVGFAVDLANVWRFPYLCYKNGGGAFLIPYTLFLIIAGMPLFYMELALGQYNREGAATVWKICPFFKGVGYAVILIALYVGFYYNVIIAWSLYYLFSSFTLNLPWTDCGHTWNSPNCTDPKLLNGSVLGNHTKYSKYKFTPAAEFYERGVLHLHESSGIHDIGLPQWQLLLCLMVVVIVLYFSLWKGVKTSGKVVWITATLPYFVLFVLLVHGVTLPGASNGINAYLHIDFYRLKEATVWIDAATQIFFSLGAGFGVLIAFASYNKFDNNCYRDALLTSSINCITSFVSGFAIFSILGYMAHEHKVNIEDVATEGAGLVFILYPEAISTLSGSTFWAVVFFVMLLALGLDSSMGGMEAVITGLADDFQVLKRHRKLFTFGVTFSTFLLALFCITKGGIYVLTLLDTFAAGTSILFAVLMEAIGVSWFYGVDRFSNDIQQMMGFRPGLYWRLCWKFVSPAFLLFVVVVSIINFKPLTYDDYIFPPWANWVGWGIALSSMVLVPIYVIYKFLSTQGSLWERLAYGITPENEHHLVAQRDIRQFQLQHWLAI
Sequence of human dopamine transporter (Q01959 whole entry): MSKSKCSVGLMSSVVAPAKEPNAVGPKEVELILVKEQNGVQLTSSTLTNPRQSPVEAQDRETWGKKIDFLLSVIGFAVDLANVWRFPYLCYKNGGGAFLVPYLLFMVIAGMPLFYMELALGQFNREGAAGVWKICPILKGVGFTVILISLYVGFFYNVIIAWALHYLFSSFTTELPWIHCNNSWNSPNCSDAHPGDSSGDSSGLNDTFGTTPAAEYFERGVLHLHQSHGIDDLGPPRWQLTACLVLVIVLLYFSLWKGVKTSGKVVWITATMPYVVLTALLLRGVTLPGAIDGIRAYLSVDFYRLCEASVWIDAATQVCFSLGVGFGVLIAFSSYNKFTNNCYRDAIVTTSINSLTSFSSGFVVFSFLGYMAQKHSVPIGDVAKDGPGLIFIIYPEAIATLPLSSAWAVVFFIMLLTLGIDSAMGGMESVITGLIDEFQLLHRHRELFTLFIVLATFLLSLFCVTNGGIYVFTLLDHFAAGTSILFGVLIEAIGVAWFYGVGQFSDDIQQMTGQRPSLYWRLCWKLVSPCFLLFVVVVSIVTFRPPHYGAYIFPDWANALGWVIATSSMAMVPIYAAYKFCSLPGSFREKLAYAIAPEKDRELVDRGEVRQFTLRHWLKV

Regarding `CNC[C@@H](c1ccc2ccccc2c1)[C@@H](O)c1cccs1` [Compound 144], the results for the Ki in data set [1] and in data set [2] were 113 nM and 10 nM, respectively. For the same compound, the pKa in data set [3] (setting [5]) stood at 9.7.

On to `CNC[C@H](c1ccc2ccccc2c1)[C@H](OC)c1ccccc1` [Compound 46], for which the Ki worked out at 3.4 nM in data set [4], 37.5 nM in data set [1] and 24.2 nM in data set [2]. Besides, in data set [3] (setting [5]), the pKa was determined as 9.7.

For `CNC[C@H](c1ccc2ccccc2c1)[C@H](OCc1cccn(C)c1=O)c1ccccc1` [Compound 31], the inhibitory constant (Ki) stood at 2.4 nM in data set [4], 24.6 nM in data set [1] and 1.9 nM in data set [2]. The pKa in data set [3] (setting [5]) came out at 9.6.

Turning to `CNC[C@@H](c1ccc(Br)c(Cl)c1)[C@H](O)c1ccccc1` (racemic) [Compound 150], the Ki in data set [4] was 6.3 nM; in data set [1], 31.8 nM; in data set [2], 51.5 nM. The pKa in data set [3] (setting [5]) turned out to be 9.4.

For the compound `CNCC(CCc1ccccc1)[C@@H](O)c1ccccc1` (some centres unmarked) [Compound 147], the Ki in data set [4] worked out at 45.7 nM; in data set [1], 121 nM; in data set [2], 800 nM. Further, the pKa in data set [3] (setting [5]) was determined as 10.1.

Regarding `CNC[C@H](c1ccc2ccccc2c1)[C@H](OCC(=O)N(C)OC)c1ccccc1` [Compound 71], the Ki came to 10 nM in data set [4], 17.9 nM in data set [1] and 4.4 nM in data set [2]. Also, the pKa in data set [3] (setting [5]) was 9.6.

On to `CNCC(Cc1ccccc1F)c1ccc2ccccc2c1` (racemic) [Compound 36], for which the pKa in data set [3] (setting [5]) was 10.

Consider `CNC[C@H](c1ccc2ccccc2c1)[C@H](OCC(=O)NCC(F)(F)F)c1ccccc1` [Compound 68], for which the Ki was 8.4 nM in data set [4], 55.5 nM in data set [1] and 29.7 nM in data set [2]. Further, in data set [3] (setting [5]), the pKa is 9.6.

Turning to `CNC[C@H](c1ccc2ccccc2c1)[C@H](OCC(=O)Nc1ccccc1)c1ccccc1` [Compound 45], the Ki in data set [4] came out at 3.3 nM; in data set [1] it was 8.9 nM; in data set [2] it was 2.4 nM. Besides, the pKa in data set [3] (setting [5]) is 9.7.

For the compound `CNC[C@H](c1ccc2ccccc2c1)[C@H](OCC(=O)NC1CCC1)c1ccccc1` [Compound 8], the Ki is 1.4 nM in data set [4], 10.8 nM in data set [1] and 1.3 nM in data set [2]. Moreover, the pKa in data set [3] (setting [5]) amounted to 9.6.

`NCC(Cc1ccccc1F)c1ccc2ccccc2c1` (centres unmarked) [Compound 137]: the results for the inhibition constant Ki in data set [1] and in data set [2] were 77.7 nM and 31.8 nM, respectively. In addition, the pKa in data set [3] (setting [5]) turned out to be 9.3.

Turning to `CNC[C@H](c1ccc2ccccc2c1)[C@H](O[C@H](C)C(=O)N1CCCC1)c1ccccc1` [Compound 81], the Ki in data set [4] turned out to be 14.7 nM; in data set [1] it was 1360 nM; in data set [2], 13 nM. In data set [3] (setting [5]), the pKa was determined as 9.6.

Consider `CNC[C@@H](Cc1cccnc1)c1ccc(Cl)c(Cl)c1` [Compound 59], for which the inhibitory constant (Ki) is 112 nM in data set [1] and 35.6 nM in data set [2]. The pKa was found to be 9.6 in data set [3] (setting [5]) and 5.2 in data set [3] (setting [6]).

Consider `CNCC(CCc1ccccc1)[C@@H](O)c1ccccc1` (some centres unmarked) [Compound 27], for which the inhibition constant (Ki) came to 2.3 nM in data set [4], 96.7 nM in data set [1] and 252 nM in data set [2]. Besides, in data set [3] (first base, e.g., an aliphatic primary, secondary, or tertiary amine), the “pKa (Base 1)” value turned out to be 10.1.

Regarding `CNC[C@H](c1ccc2ccccc2c1)[C@H](O)c1cc(F)cc(F)c1` (single isomer, unassigned) [Compound 37], the Ki in data set [4] amounted to 3 nM; in data set [1], 63.6 nM; in data set [2] it was 54.6 nM. In data set [3] (setting [5]), the pKa was 9.6.

As for `NC[C@@H](c1ccc2ccccc2c1)[C@@H](O)c1ccccc1` [Compound 88], the Ki in data set [1] stood at 80.4 nM. Moreover, the pKa in data set [3] (setting [5]) was 8.7.

Turning to `CNC[C@H](c1ccc(Br)cc1)[C@H](O)c1ccccc1` (racemic) [Compound 149], the inhibitory constant (Ki) turned out to be 7.7 nM in data set [4], 129 nM in data set [1] and 119 nM in data set [2]. The pKa in data set [3] (setting [5]) was 9.7.

On to `CNC[C@H](c1ccc(Cl)cc1)[C@H](O)c1ccccc1` (racemic) [Compound 148], for which the figures for the inhibition constant Ki in data set [4], in data set [1] and in data set [2] were 8.5 nM, 114 nM and 191 nM, respectively. Further, in data set [3] (setting [5]), the pKa amounted to 9.7.

Take `CNCC(Cc1cccnc1)c1ccc(Cl)c(Cl)c1` (racemic) [Compound 80]: the inhibitory constant (Ki) in data set [1] worked out at 52.2 nM; in data set [2] it was 34.7 nM. Also, the pKa turned out to be 9.6 in data set [3] (setting [5]) and 5.2 in data set [3] (setting [6]).

In the case of `CNC[C@H](c1ccc(OC)c(C)c1)[C@H](O)c1ccccc1` (racemic) [Compound 54], the Ki in data set [4] was 4.5 nM; in data set [1] it was 971 nM; in data set [2], 2.4 nM. The pKa in data set [3] (setting [5]) was determined as 10.

In the case of `CNCCC(Oc1ccccc1OC)c1ccccc1` (centres unmarked) [compound 177], the Ki in data set [2] was determined as 54.4 nM.

With `CNC[C@H](c1ccc2ccccc2c1)[C@H](OCC(=O)NCCOC)c1ccccc1` [Compound 51], the inhibition constant Ki in data set [4] amounted to 3.9 nM; in data set [1], 141 nM; in data set [2] it was 2.6 nM. In addition, the pKa in data set [3] (setting [5]) is 9.6.

In the case of `CNC[C@H](c1ccc2ccccc2c1)[C@H](OCc1cccc(=O)n1C)c1ccccc1` [Compound 79], the results for the Ki in data set [4], in data set [1] and in data set [2] were 14.4 nM, 73.3 nM and 6.4 nM, respectively. Also, in data set [3] (setting [5]), the pKa came out at 9.7.

Consider `CNCC(c1ccc2ccccc2c1)C(OC)c1ccccc1` (centres unmarked) [Compound 38], for which the figures for the Ki in data set [4], in data set [1] and in data set [2] were 3.1 nM, 49.9 nM and 16.9 nM, respectively. In addition, the pKa in data set [3] (setting [5]) amounted to 9.7.

Consider `CNC[C@H](Cc1cccnc1)c1ccc(Cl)c(Cl)c1` [Compound 115], for which the inhibition constant (Ki) in data set [1] is 127 nM; in data set [2], 642 nM. Besides, the pKa in data set [3] (setting [5]) stood at 9.6; in data set [3] (setting [6]) it was 5.2.

With `CNC[C@H](Cc1ccccc1F)c1ccc2ccccc2c1` [Compound 138], the pKa in data set [3] (setting [5]) is 10.

`CNC[C@H](c1ccc2ccccc2c1)[C@H](OCC(=O)N1CC[C@H](OC)C1)c1ccccc1` [Compound 131]: the pKa in data set [3] (setting [5]) is 9.6.

Turning to `CNC[C@H](c1ccc(Cl)c(Cl)c1)[C@@H](O)c1ccccc1[N+](=O)[O-]` [compound 65], the “potency at hNET relative to the other enantiomer or epimer” value in data set [4] is on record as “more potent”.

Turning to `CNCC(Cc1ccccc1F)c1ccc2ccccc2c1` (centres unmarked) [Compound 17], the pKa in data set [3] (setting [5]) came to 10.

As to `CNCC(Cc1ccccc1CO)c1ccc2ccccc2c1` (centres unmarked) [compound 90], the “potency at hNET relative to the other enantiomer or epimer” value in data set [4] was “less potent”.

On to `CNC[C@H](c1ccc(Cl)c(Cl)c1)[C@@H](O)c1cccc(I)c1` [compound 165], for which the “potency at hNET relative to the other enantiomer or epimer” value in data set [4] was “higher potency”.

Turning to `CNC[C@H](c1ccc2ccccc2c1)[C@H](O)c1cccs1` [Compound 47], the Ki is 15 nM in data set [1] and 2.2 nM in data set [2]. Moreover, the pKa in data set [3] (setting [5]) worked out at 9.7.

Regarding `CNC[C@H](c1ccc(Cl)c(Cl)c1)[C@H](O)c1cncc(OC)c1` [compound 166], the “potency at hNET relative to the other enantiomer or epimer” value in data set [4] is recorded as “more potent”.

With `CNC[C@H](c1ccc(OC)c(C)c1)[C@H](O)c1cccnc1` [compound 55], in data set [4], the “potency at hNET relative to the other enantiomer or epimer” value was “more potent”.

For `CNCC(c1ccc2ccccc2c1)[C@@H](O)c1ccc(Cl)nc1` (some centres unmarked) [compound 169], the “potency at hNET relative to the other enantiomer or epimer” value in data set [4] is given as “lower potency”.

In the case of `NCC(c1ccc2ccccc2c1)[C@@H](O)c1ccccc1` (some centres unmarked) [Compound 91], in data set [1], the Ki worked out at 249 nM. Besides, in data set [3] (setting [5]), the pKa was determined as 8.7.
